According to patent US6770738B1, “Higher order structure and binding of peptide nucleic acids” (ISIS Pharmaceuticals, Inc., priority 1992, dated 2004):
Each block holds one substance with its values, some of them ahead of it.

Assays:
[1] = tested on: complementary deoxyoligonucleotide; experiment: Melting temperature of complexes with complementary DNA; assay type: binding; settings: 100 mM NaCl, 10 mM Na-phosphate, 0.1 mM EDTA, pH 7; 4 μM of each strand
Procedure: (§1) The thermal stability measured as the melting temperature, Tm, of complexes between the pentadecamer, H-TGTACGTCACAACTA-NH2 (SEQ ID NO:10) and the complementary deoxyoligonucleotide 3′-ACATGCAGTGTTGAT (SEQ ID NO:47) (termed anti-parallel orientation: amino terminal of the PNA complementary to the 3′-end of the oligonucleotide) was 69.5° C. (see Table II), whereas the Tm of the corresponding PNA-DNA complex in parallel orientation was 56.1° C. The Tm for the PNA-RNA complexes was 72.3 and 51.2° C., respectively (see Table II). The orientation preference was further settled by using two decamer PNAs, and hybridizing these to complementary oligonucleotides in both orientations. The anti-parallel orientation was preferred in all cases (see Table II). Furthermore, it is noteworthy that virtually identical Tms were obtained regardless of which strand is the PNA and which is the DNA (see Table II, 2nd & 3rd row).

complementary RNA [2] = experiment: Melting temperature of complexes with complementary RNA; assay type: binding; settings: 100 mM NaCl, 10 mM Na-phosphate, 0.1 mM EDTA, pH 7; 4 μM of each strand
Procedure: as §1

complementary DNA = experiment: Thermodynamics of duplex formation with DNA; assay type: binding
Procedure: (§2) Thermodynamics parameters for hybridization can be extracted from thermal stability measurements when these are performed at varying concentrations of the complexes, or from the shape of the thermal denaturation curves. Both methods were used to determine ΔH°, ΔS° and ΔG° for formation of the PNA/RNA, DNA/RNA, PNA/DNA and DNA/DNA duplexes (Table III). It is remarkable that the decrease in entropy is almost identical for the formation of DNA/DNA and PNA/DNA duplexes and that both reactions are strongly enthalpy driven.

complementary RNA [3] = experiment: Thermodynamics of duplex formation with RNA; assay type: binding
Procedure: as §2

[4] = tested on: RNA target 5′-TAGTTGTGACGTACA-3; experiment: Equilibrium and rate constants for duplexes with RNA (gel-shift); assay type: binding; settings: [Na+] 0.1 M, 37 ° C.; 100 mM NaCl, 10 mM phosphate, 1 mM EDTA, pH 7.0; gel-shift with 32P-labeled RNA
[5] = tested on: pT9CT9C plasmid linearized by CfrlOI; experiment: Site-specific S1 nuclease digestion of plasmid with two PNA sites complexed with PNA; assay type: biochemical; settings: 30 units S1 nuclease; target sites are for T5CT4
Excerpt: was cloned into the Sal1 site of the pUC19 plasmid. This plasmid, which contained two binding sites for PNA H-T5CT4-LysNH2 (SEQ ID NO:6) separated by six base pairs, was designated pT9CT9C. Strand displacement in the two T5CT4 sites led to opening of the entire region, including the sequence GTCGAC/GACGAC, providing a substrate for the S1 nuclease in both strands. As control, a pT9C-5 plasmid was used, which carried only one T5CT4 (SEQ ID NO:6) insert cloned into the SalI site of the pUC19 plasmid.
cloned in the Sal1 site of the pUC19 polylinker. The pT9C-5 plasmid carried the single insert A5GA4/CT5 (SEQ ID NO:4) cloned in the same site. The PNA-DNA complexes were prepared as described in Example 2 with the only difference being the duration of the incubation was 2 hours. Digestion by 30 units of the S1 nuclease was performed in the same buffer as described in Example 2 with two exceptions, lanes 2 and 4. In lane 2, 15 units of the enzyme were used, whereas in lane 4 200 mM NaCl and 1 mM of ZnSO4 were added to the buffer. Lane 1: the reference band obtained by digestion with the BamHI restriction enzyme of the pUC 19 plasmid linearized by the CfrlOI restriction enzyme. Lanes 2-4 site-specific digestion by the S1 nuclease of the linearized pT9C plasmid complexed with PNA H-T5CT4-LysNH2 (SEQ ID NO:6). Lanes 5-7: various controls. Lane 8: the same experiment as in lane 3, but using PNA T10 (SEQ ID NO:2) instead of T4CT5 (SEQ ID NO:8). Lane 9: the same experiment as in lane 3, but using PNA T2CT2CT4 (SEQ ID NO:1) instead of T4CT5 (SEQ ID NO:8). Lane 10: the same experiment as in lane 3, but using the pT9C-5 plasmid instead of the pT9C. In the header PNA T5CT4 (SEQ ID NO:6) is labelled as 1, T10 (SEQ ID NO:2) as 2 and T2CT2CT4 (SEQ ID NO:1) as 3.
The bands observed by gel electrophoresis have the same position and width as the band created by the BamHI restriction enzyme. […] Moreover, under the much milder S1 nuclease treatment necessary to generate the data for the pT9CT9C, the yield of double-stranded breaks in the pT9C-5 plasmid was extremely low (lane 10).

[6] = tested on: 264 bp EcorI/PvuII fragment of pT8C2A8G2; experiment: KMnO4 and DMS probing of PNA binding to double-stranded DNA; settings: pH 7.5, 5 μM PNA, compared to pH 6.5 and 5.5
Procedure: Probing was effected in 100μ buffer (S1: 100 mM NaCl, 1 mM ZnSO4, 50 mM NaAc, pH 4.5; KMnO4/dimethyl sulphate (DMS): 10 mM Na-cacodylate, 1 mM EDTA, pH 7.0 or as other wise noted) containing about 200 cps ^32P-labeled DNA fragment, 0.5 μg calf thymus DNA and the desired amount of PNA. Following a preincubation for 60 min at 37° C., the probing reagent was added and the incubation was continued at room temperature. The reactions were terminated by the addition of a stop-buffer. The DNA was precipitated by addition of 200 μL. 2% KAc in 96% EtOH and was analyzed by electrophoresis in 10% polyacrylamide sequencing gels. Radioactive DNA bands were visualized by autoradiography using amplifying screens and Agfa curix RPA X-ray films exposed at −70° C.
Probing conditions were: S1: 0.5 U/μl, 5 min. stopped with 3 μl 1 M EDTA; KMnO4: 1 mM, 15 sec. stopped with 50 μl 1M […], 1.5 M NaAc, pH 7.0; DMS: 1% DMS, 15 sec., stopped as for KMnO4 probing. Samples probed with DMS or KMnO4 were treated with piperidine (0.5 M, 90° C., 20 min.) prior to gel analysis.
For this example the 264 bp EcorI/PvuII fragment of pT8C2A8G2 was used that was 3′-^32P-end-labeled at the EcorI sit. Probing was effected as per the protocols of Example 12. The results are shown in FIG. 12 where in lanes 1 & 9 are controls without PNA. Lanes 1-7 are KMnO4 probing while lanes 9-15 are DMS probing. […]

[7] = tested on: A4GA2GA2 target (pA8G2KS/T3, pT8C2KS/T7 RNA polymerase); experiment: Transcription elongation arrest using T3 or T7 RNA polymerase, mixed A/G PNA targets; assay type: biochemical; settings: compared to Example 22
Procedure: The complex between the desired PNA and the desired DNA (100 ng) cleaved with the desired restriction enzyme was formed by incubation in 14 μL 10 mM Tris-HCl, 1 mM EDTA, (pH 7.4) buffer for 60 min at 37° C. Subsequently 4 μL 5× concentrated polymerase buffer (0.2 M Tris-HCl, pH 8.0, 125 mM NaCl, 40 mM MgCl2 10 mM spermidine) was added together with 15 U of RNA polymerase and ATP (10 μM), CTP (10 mM), UTP (1 mM) and ^32P-UTP (0.1 μCi). The incubation was continued for 10 min. Following ethanol precipitation, the RNA was analyzed by electrophoresis in polyacrylamide sequencing gels, and radialabeled RNA bands were visualized by autoradiography (using Agfa Curix RPI X-ray films and intensifying screens). Quantitation was performed by densitometric scanning using a Molecular Dynamics laser scanner and the ImageQuant™ software.
Samples identical to those used for Example 20 were analyzed by electrophoresis in a polyacrylamide sequencing gel. The results are shown in FIG. 23 where, Lanes 1-4: pA10KS/T3 RNA polymerase; lanes 5-8: pT10KS/T7 RNA polymerase; lanes 9-12: pA8G2KS/T3 RNA polymerase lanes 13-16: pT8C2KST7 RNA polymerase. The plasmid used in the samples of lanes 1-3 was cleaved with Xbal, that in lanes 6-8 with Pst1, that in lanes 9-11 with BamH1 and that in lanes 14-16 with HindIII. Lanes 1, 8, 9 & 16 are controls without PNA. […]

5′d(AAAAGGAGAG) = experiment: Melting temperature of complex with decamer; assay type: binding; settings: pH 7
Procedure: (§3) The dimer prepared in Example 53 was incorporated into PNA H-TT(detT-idaT)CCTCTC-LysNH2 (SEQ ID NO:53) generally in accordance with Example 1. The melting temperatures, Tm, of complexes between this PNA and decamers 5′d(AAAAGGAGAG) (SEQ ID NO:54) and 5′d(GAGAGGAAAA) (SEQ ID NO:55) were 55° C. and 43.5° C., respectively, at pH 7. By comparison, the Tm of complexes between PNA H-TTTCCTCTC-LysNH2 (SEQ ID NO:56), prepared generally in accordance with Example 1, and these decamers was 58.5° C. and 40.5° C., respectively, at pH 7.

5′d(GAGAGGAAAA) = experiment: Melting temperature of complex with decamer; assay type: binding; settings: pH 7
Procedure: as §3

[8] = 8 μM, average of the two methods
[9] = 8 μM, fit to modified two state model
[10] = 8 μM, linear plots of 1/TM versus log (concentration)
[11] = fit to modified two state model
[12] = fit to modified two state model, 100 mM NaCl, 10 mM Na-phosphate, 0.1 mM EDTA, pH 7.0
[13] = linear plots of 1/TM versus log (concentration)

Substance: DNA TGTACGTCACAACTA: DNA oligonucleotide 5′-TGTACGTCACAACTA-3′ as first strand of reference duplexes (DNA, backbone and methylation of C not given here) [reference compound]
Melting temperature Tm, DNA:DNA [1]: 53.3 °C
Melting temperature Tm, DNA:RNA (complementary RNA [2]): 50.6 °C
TM (average of the two methods) (complementary DNA; [8]): 53.5 °C
TM (melting curve fit) (complementary DNA; [9]): 53.6 °C
TM (1/TM versus log concentration) (complementary DNA; [10]): 53.5 °C
ΔG°37 (average of the two methods) (complementary DNA; average of the two methods): -13.1 kcal/mol
ΔH° (average of the two methods) (complementary DNA; average of the two methods): -98.4 kcal/mol
ΔS° (average of the two methods) (complementary DNA; average of the two methods): −275.1 eu
ΔG°3 (melting curve fit) (complementary DNA; [11]): −12.7
ΔS° (melting curve fit) (complementary DNA; [11]): −253.9 eu
ΔH° (melting curve fit) (complementary DNA; [12]): -91.5 kcal/mol
ΔG°37 (1/TM versus log concentration) (complementary DNA; [13]): −13.4 kcal/mol
ΔH° (1/TM versus log concentration) (complementary DNA; [13]): −105.3 kcal/mol
ΔS° (1/TM versus log concentration) (complementary DNA; [13]): −296.2 eu
TM (average of the two methods) (complementary RNA [3]; [8]): 50.0 °C
TM (melting curve fit) (complementary RNA [3]; [9]): 49.8 °C
TM (1/TM versus log concentration) (complementary RNA [3]; [10]): 50.1 °C
ΔG°37 (average of the two methods) (complementary RNA [3]; average of the two methods): -12.6 kcal/mol
ΔH° (average of the two methods) (complementary RNA [3]; average of the two methods): -111.5 kcal/mol
ΔS° (average of the two methods) (complementary RNA [3]; average of the two methods): −318.9 eu
ΔG°3 (melting curve fit) (complementary RNA [3]; [11]): −11.8
ΔS° (melting curve fit) (complementary RNA [3]; [11]): −264.9 eu
ΔH° (melting curve fit) (complementary RNA [3]; [12]): -94.0 kcal/mol
ΔG°37 (1/TM versus log concentration) (complementary RNA [3]; [13]): −13.3 kcal/mol
ΔH° (1/TM versus log concentration) (complementary RNA [3]; [13]): −128.9 kcal/mol
ΔS° (1/TM versus log concentration) (complementary RNA [3]; [13]): −372.8 eu
Kd [4]: 2 nM

strand displacement binding (KMnO4 and DMS probing) [6]: Very little binding
Substance: H-T2CT2CT4LysNH2 [PNA H-T2CT2CT4-LysNH2]
S1 nuclease digestion of pT9CT9C plasmid complexed with PNA [5]: very weak digestion

transcription arrest efficiency [7]: much less efficient
Substance: H-T4CT2CT2LysNH2 [PNA H-T4CT2CT2LysNH2]

Substance: H-TTTCCTCTC-LysNH2 [PNA H-TTTCCTCTC-LysNH2]
melting temperature Tm (5′d(AAAAGGAGAG)): 58.5 °C
melting temperature Tm (5′d(GAGAGGAAAA)): 40.5 °C
